From the NIST ThermoML archive (doi:10.1021/je201334p)
± gives the expanded uncertainty stated by the source.

Columns and labels:
[1] = xn = mol fraction of the nth substance listed; settings: 101 kPa, Liquid; for speed of sound: Sing-around technique in a fixed-path interferometer; for mass density: Vibrating tube method
[2] = refractive index (Na D-line) (dimensionless); xn = mol fraction of the nth substance listed; settings: 101 kPa, Liquid, Standard Abbe refractometry

CCCCCCn1cc[n+](C)c1.N#CN=C=[N-] [1-hexyl-3-methylimidazolium dicyanamide] + O
Settings | mass density, 288.15 K [kg/m3] | mass density, 298.15 K [kg/m3] | mass density, 308.15 K [kg/m3] | refractive index, 288.15 K | refractive index, 298.15 K | refractive index, 308.15 K | speed of sound, 288.15 K [m/s] | speed of sound, 298.15 K [m/s] | speed of sound, 308.15 K [m/s]
[1], x2 = 0 | 1034.76 ± 2.6 | 1028.56 ± 2.6 | 1022.4 ± 2.5 | – | – | – | 1713.4 ± 3.2 | 1687.7 ± 3.2 | 1662.7 ± 3.2
[1], x2 = 0.0785 | 1034.48 ± 2.2 | 1028.25 ± 2.2 | 1022.07 ± 2.2 | – | – | – | 1713.4 ± 3 | 1688.1 ± 3 | 1663.1 ± 3
[1], x2 = 0.1191 | 1034.31 ± 2 | 1028.07 ± 2 | 1021.88 ± 2 | – | – | – | 1713.8 ± 2.9 | 1688.3 ± 2.9 | 1663.3 ± 2.9
[1], x2 = 0.2124 | 1033.88 ± 1.6 | 1027.61 ± 1.6 | 1021.38 ± 1.6 | – | – | – | 1714.3 ± 2.6 | 1688.9 ± 2.6 | 1664 ± 2.6
[1], x2 = 0.3055 | 1033.38 ± 1.3 | 1027.08 ± 1.3 | 1020.81 ± 1.3 | – | – | – | 1715 ± 2.4 | 1689.7 ± 2.4 | 1664.8 ± 2.4
[1], x2 = 0.4019 | 1032.76 ± 0.99 | 1026.41 ± 0.97 | 1020.08 ± 0.96 | – | – | – | 1715.8 ± 2.1 | 1690.6 ± 2.1 | 1665.8 ± 2.1
[1], x2 = 0.5096 | 1031.9 ± 0.69 | 1025.46 ± 0.68 | 1019.04 ± 0.67 | – | – | – | 1717 ± 1.9 | 1692.1 ± 1.9 | 1667.6 ± 1.9
[1], x2 = 0.6069 | 1030.86 ± 0.48 | 1024.31 ± 0.47 | 1017.78 ± 0.46 | – | – | – | 1717.9 ± 1.6 | 1693.4 ± 1.6 | 1668.9 ± 1.6
[1], x2 = 0.7123 | 1029.08 ± 0.29 | 1022.4 ± 0.29 | 1015.71 ± 0.28 | – | – | – | 1717.1 ± 1.4 | 1693.2 ± 1.4 | 1669.1 ± 1.4
[1], x2 = 0.8067 | 1026.34 ± 0.17 | 1019.6 ± 0.17 | 1012.81 ± 0.16 | – | – | – | 1709.4 ± 1.3 | 1687.6 ± 1.3 | 1665.3 ± 1.3
[1], x2 = 0.9031 | 1020.46 ± 0.09 | 1014.13 ± 0.09 | 1007.62 ± 0.09 | – | – | – | 1672 ± 1.1 | 1659.1 ± 1.1 | 1644.5 ± 1.1
[1], x2 = 0.9499 | 1014.51 ± 0.06 | 1009.12 ± 0.07 | 1003.34 ± 0.07 | – | – | – | 1618.9 ± 1.1 | 1618.6 ± 1 | 1614.6 ± 1.1
[2], x2 = 0 | – | – | – | 1.50729 ± 0.00079 | 1.50415 ± 0.00079 | 1.501 ± 0.00079 | – | – | –
[2], x2 = 0.0785 | – | – | – | 1.50599 ± 0.00075 | 1.50284 ± 0.00075 | 1.49962 ± 0.00076 | – | – | –
[2], x2 = 0.1191 | – | – | – | 1.50525 ± 0.00073 | 1.5021 ± 0.00074 | 1.49894 ± 0.00074 | – | – | –
[2], x2 = 0.2124 | – | – | – | 1.50333 ± 0.00069 | 1.50016 ± 0.0007 | 1.49698 ± 0.00071 | – | – | –
[2], x2 = 0.3055 | – | – | – | 1.50096 ± 0.00065 | 1.4978 ± 0.00066 | 1.49462 ± 0.00068 | – | – | –
[2], x2 = 0.4019 | – | – | – | 1.49784 ± 0.00061 | 1.49467 ± 0.00063 | 1.49131 ± 0.00065 | – | – | –
[2], x2 = 0.5096 | – | – | – | 1.49312 ± 0.00057 | 1.48997 ± 0.00059 | 1.48679 ± 0.00063 | – | – | –
[2], x2 = 0.6069 | – | – | – | 1.48721 ± 0.00051 | 1.48405 ± 0.00057 | 1.48083 ± 0.00064 | – | – | –
[2], x2 = 0.7123 | – | – | – | 1.47716 ± 0.00046 | 1.474 ± 0.00055 | 1.47076 ± 0.00069 | – | – | –
[2], x2 = 0.8067 | – | – | – | 1.46233 ± 0.00047 | 1.45924 ± 0.00053 | 1.4559 ± 0.00091 | – | – | –
[2], x2 = 0.9031 | – | – | – | 1.43179 ± 0.00056 | 1.42902 ± 0.00049 | 1.42645 ± 0.001 | – | – | –
[2], x2 = 0.9499 | – | – | – | 1.40179 ± 0.001 | 1.39945 ± 0.00048 | 1.39679 ± 0.0014 | – | – | –

COS(=O)(=O)[O-].C[n+]1ccccc1 [1-methylpyridinium methylsulfate] + O
Settings | mass density, 288.15 K [kg/m3] | mass density, 298.15 K [kg/m3] | mass density, 308.15 K [kg/m3] | refractive index, 288.15 K | refractive index, 298.15 K | refractive index, 308.15 K | speed of sound, 288.15 K [m/s] | speed of sound, 298.15 K [m/s] | speed of sound, 308.15 K [m/s]
[1], x2 = 0 | 1352.86 ± 0.69 | 1346.12 ± 0.68 | 1339.37 ± 0.67 | – | – | – | 1901.1 ± 1.5 | 1875.8 ± 1.5 | 1852.4 ± 1.5
[1], x2 = 0.0574 | 1350.36 ± 0.64 | 1343.61 ± 0.63 | 1336.86 ± 0.62 | – | – | – | 1900.5 ± 1.5 | 1876 ± 1.5 | 1852.3 ± 1.5
[1], x2 = 0.073 | 1349.61 ± 0.62 | 1342.85 ± 0.61 | 1336.11 ± 0.61 | – | – | – | 1901.4 ± 1.5 | 1876.4 ± 1.5 | 1852.7 ± 1.5
[1], x2 = 0.1111 | 1347.74 ± 0.59 | 1340.98 ± 0.58 | 1334.23 ± 0.58 | – | – | – | 1901.9 ± 1.5 | 1877.4 ± 1.5 | 1853.7 ± 1.5
[1], x2 = 0.1927 | 1343.32 ± 0.53 | 1336.56 ± 0.52 | 1329.82 ± 0.51 | – | – | – | 1903.2 ± 1.4 | 1879.2 ± 1.4 | 1855.8 ± 1.4
[1], x2 = 0.2941 | 1336.61 ± 0.46 | 1329.85 ± 0.45 | 1323.12 ± 0.45 | – | – | – | 1906.5 ± 1.4 | 1882.6 ± 1.4 | 1859.2 ± 1.4
[1], x2 = 0.4005 | 1327.54 ± 0.39 | 1320.8 ± 0.39 | 1314.09 ± 0.38 | – | – | – | 1909.5 ± 1.3 | 1886.2 ± 1.3 | 1863.4 ± 1.3
[1], x2 = 0.4996 | 1316.5 ± 0.34 | 1309.79 ± 0.34 | 1303.09 ± 0.33 | – | – | – | 1912.2 ± 1.3 | 1889.5 ± 1.3 | 1867 ± 1.3
[1], x2 = 0.6077 | 1299.41 ± 0.29 | 1292.74 ± 0.29 | 1286.07 ± 0.28 | – | – | – | 1913.2 ± 1.3 | 1891 ± 1.3 | 1868.9 ± 1.2
[1], x2 = 0.7064 | 1276.09 ± 0.25 | 1269.51 ± 0.25 | 1262.91 ± 0.25 | – | – | – | 1906.8 ± 1.2 | 1885.4 ± 1.2 | 1863.4 ± 1.2
[1], x2 = 0.8058 | 1237.51 ± 0.22 | 1231.17 ± 0.22 | 1224.76 ± 0.22 | – | – | – | 1878 ± 1.2 | 1859.2 ± 1.2 | 1837.7 ± 1.2
[1], x2 = 0.901 | 1168.89 ± 0.16 | 1163.31 ± 0.16 | 1157.51 ± 0.17 | – | – | – | 1782.3 ± 1.1 | 1772.7 ± 1.1 | 1760.4 ± 1.2
[1], x2 = 0.9497 | 1107.24 ± 0.12 | 1102.67 ± 0.12 | 1097.68 ± 0.12 | – | – | – | 1670.4 ± 1.1 | 1673.5 ± 1.1 | 1673.4 ± 1.1
[1], x2 = 0.9645 | 1081.91 ± 0.12 | 1077.85 ± 0.12 | 1073.27 ± 0.12 | – | – | – | 1622.5 ± 1 | 1633.3 ± 1 | 1637.2 ± 1
[2], x2 = 0 | – | – | – | 1.51603 ± 0.00052 | 1.5134 ± 0.00052 | 1.51077 ± 0.00052 | – | – | –
[2], x2 = 0.0574 | – | – | – | 1.51462 ± 0.00051 | 1.51199 ± 0.00051 | 1.50937 ± 0.00052 | – | – | –
[2], x2 = 0.073 | – | – | – | 1.51423 ± 0.00051 | 1.51159 ± 0.00051 | 1.50895 ± 0.00051 | – | – | –
[2], x2 = 0.1111 | – | – | – | 1.51315 ± 0.00051 | 1.51052 ± 0.00051 | 1.50794 ± 0.00051 | – | – | –
[2], x2 = 0.1927 | – | – | – | 1.51059 ± 0.00049 | 1.50803 ± 0.0005 | 1.50539 ± 0.00052 | – | – | –
[2], x2 = 0.2941 | – | – | – | 1.50679 ± 0.00048 | 1.50426 ± 0.0005 | 1.5017 ± 0.00052 | – | – | –
[2], x2 = 0.4005 | – | – | – | 1.50177 ± 0.00047 | 1.49921 ± 0.00049 | 1.49665 ± 0.00052 | – | – | –
[2], x2 = 0.4996 | – | – | – | 1.49567 ± 0.00045 | 1.49314 ± 0.00049 | 1.49057 ± 0.00054 | – | – | –
[2], x2 = 0.6077 | – | – | – | 1.48632 ± 0.00043 | 1.48384 ± 0.00048 | 1.48134 ± 0.00057 | – | – | –
[2], x2 = 0.7064 | – | – | – | 1.47388 ± 0.00041 | 1.47142 ± 0.00048 | 1.46886 ± 0.00065 | – | – | –
[2], x2 = 0.8058 | – | – | – | 1.45378 ± 0.0005 | 1.45141 ± 0.00047 | 1.44897 ± 0.00087 | – | – | –
[2], x2 = 0.901 | – | – | – | 1.41884 ± 0.00053 | 1.4167 ± 0.00046 | 1.41447 ± 0.00087 | – | – | –
[2], x2 = 0.9497 | – | – | – | 1.38778 ± 0.0004 | 1.38593 ± 0.00045 | 1.38397 ± 0.00053 | – | – | –
[2], x2 = 0.9645 | – | – | – | 1.37506 ± 0.0004 | 1.37336 ± 0.00044 | 1.37158 ± 0.00055 | – | – | –
